This passage reports melting point results from a melting point compilation (Tetko et al.).

On to `O=C(O)c1cccc(F)c1O`, for which the melting point (as a rule, the temperature, or range, at which the solid turns liquid) was 147 °C.

In turn, `O=S1(=O)c2ccccc2-c2ccccc21` yielded a melting point of 231 to 236 °C.

`COC(=O)C1=C(C)NC(C)=C([N+](=O)[O-])C1c1ccccc1C(F)(F)F` (centres undefined): the melting point was in the range of 166 to 172 °C.

`CCOC(=O)c1c(SC)nn(C(=O)c2ccc(OC)cc2)c1N` displayed a melting point of 160 °C.

With `Cn1cncc1C(=O)NN`, the melting point lay within 186 to 187 °C.

The compound `CC(=O)Nc1ccc(-c2ccc(F)cc2)cc1` yielded a melting point of 205 to 207 °C.

Compound `O=[N+]([O-])c1ccc(N2CCCCC2)cc1` had a melting point of 104 to 106 °C.

In turn, `O=C(/C=C/c1ccccc1)NNc1ccccc1` gave a melting point of 187 °C.

As to `CN(C)c1ccc(N=Nc2ccc(N)cc2)cc1`, the melting point stood at 189 °C.

`O=C(Cl)/C=C/c1ccc(/C=C/C(=O)Cl)cc1` came in with a melting point of 171 °C.

`Cc1ccc(F)c(CO)c1Cl` returned a melting point of 69 °C.

Compound `COc1ccccc1OCCNCC(O)COc1cccc2[nH]c3ccccc3c12` (centres undefined) returned a melting point of 114 °C.

`CC(=O)CN1C(=O)N2CCc3ccccc3C2(c2ccc(Cl)cc2)C1=O` (centres undefined) showed a melting point of 173 to 175 °C.

With `O=C(C1=NN(c2ccccc2)C2C(=O)N(c3ccc(F)cc3)C(=O)C12)c1ccccc1` (centres undefined), the melting point turned out to be 211 °C.

As for `O=C(c1ccccc1)c1cc([N+](=O)[O-])ccc1Cl`, the melting point was in the range of 83 to 86 °C.

As for `O=C(O)c1sccc1Br`, the melting point worked out at 196 °C.

The compound `CC(C)(C)OC(=O)NCCC(N)=S` registered a melting point of 109 to 112 °C.

For `CCCCOc1ccc(/N=N/c2ccc(CCCC)cc2)cc1`, the melting point was in the range of 64 to 66 °C.

`CSc1ccc(-n2c(-c3ccccc3)cc(C(=O)O)c2C)cc1`: the melting point was in the range of 202 to 203 °C.

As to `NS(=O)(=O)c1c(Cl)cc(Cl)cc1Cl`, the melting point was 180 °C.

As to `NNC(=O)c1cccc(F)c1`, the melting point fell in the range of 138 to 139 °C.

The compound `CN1c2ccccc2Sc2ccc(CC(=O)O)cc21` registered a melting point of 146 °C.

On to `CCCCCCC#CC(=O)O`, for which the melting point is -8 °C.

Compound `COc1ccc(-c2nnc3n2NC(c2ccccc2)S3)cc1` (centres undefined) had a melting point of 134 °C.

As for `[O-][n+]1nc(-n2ccnc2)nc2ccc(Cl)cc21`, the melting point amounted to 182 °C.

`Cc1nc(-c2ccc(C(=O)Cl)s2)cs1` registered a melting point of 108 to 112 °C.

`CCCC(O)C(O)(CC)C1CCCCC1` (centres undefined) displayed a melting point of 78 °C.

As to `COC(=O)c1ccc(C)cc1C`, the melting point is -2 °C.

The compound `O=C1OC(c2ccccc2)=NC1=Cc1ccc(-c2ccccc2)o1` registered a melting point of 142 to 143 °C.

`CNC(=Nc1cc(C)ccn1)SC` returned a melting point of 78 to 81 °C.

`Fc1ccc(CN2CCNCC2)cc1` came in with a melting point of 64 to 65 °C.

Compound `O=S1OCCO1` displayed a melting point of -11 °C.

`Brc1ccccc1-c1nnn[nH]1` showed a melting point of 182 to 184 °C.

`CCOC(=O)Cn1c(Br)nc(Cl)c1Cl` showed a melting point of 42 to 45 °C.

`O=Cc1ccc(OCC(=O)O)cc1` gave a melting point of 198 °C.

As for `C#CCCCCCCCCCC`, the melting point was -19 °C.

Compound `N#Cc1cc(C#N)c(C#N)cc1C#N` came in with a melting point of 267 to 270 °C.

As for `CCOC(=O)CCCCCC(=O)O`, the melting point was found to be 10 °C.

Consider `CC(=O)CCC1C(=O)N(c2ccccc2)N(c2ccccc2)C1=O`, for which the melting point stood at 116 °C.

In turn, `FC(F)(F)c1ccc(-n2cc[nH]c2=S)cc1` gave a melting point of 194 to 196 °C.

Regarding `Clc1c(Cl)c(Cl)c2c(c1Cl)Oc1c(Cl)c(Cl)c(Cl)c(Cl)c1O2`, the melting point came out at 330 °C.

In turn, `CCCC(CCC)C(N)=O` displayed a melting point of 125 °C.

`CCCCCCCc1ccc(C(=O)O)cc1` returned a melting point of 102 °C.

`CC(C)(C)P(c1ccccc1-c1ccccc1)C(C)(C)C`: the melting point is 84 to 87 °C.
